Results on 7 molecules are retold here after article PMC7150767, “Monocarboxylate Transporter 6-Mediated Interactions with Prostaglandin F2α: In Vitro and In Vivo Evidence Utilizing a Knockout Mouse Model” (Pharmaceutics, 2020).

What is called inhibition is how much of the control response was suppressed. The term Km denotes the concentration of substrate that gives half-maximal velocity.

Data set [1] concerns the target T1, human monocarboxylate transporter 6 (hMCT6) (Homo sapiens, UniProt O15375).
T1 construct: gene SLC16A5
T1 sequence (O15375 1-505): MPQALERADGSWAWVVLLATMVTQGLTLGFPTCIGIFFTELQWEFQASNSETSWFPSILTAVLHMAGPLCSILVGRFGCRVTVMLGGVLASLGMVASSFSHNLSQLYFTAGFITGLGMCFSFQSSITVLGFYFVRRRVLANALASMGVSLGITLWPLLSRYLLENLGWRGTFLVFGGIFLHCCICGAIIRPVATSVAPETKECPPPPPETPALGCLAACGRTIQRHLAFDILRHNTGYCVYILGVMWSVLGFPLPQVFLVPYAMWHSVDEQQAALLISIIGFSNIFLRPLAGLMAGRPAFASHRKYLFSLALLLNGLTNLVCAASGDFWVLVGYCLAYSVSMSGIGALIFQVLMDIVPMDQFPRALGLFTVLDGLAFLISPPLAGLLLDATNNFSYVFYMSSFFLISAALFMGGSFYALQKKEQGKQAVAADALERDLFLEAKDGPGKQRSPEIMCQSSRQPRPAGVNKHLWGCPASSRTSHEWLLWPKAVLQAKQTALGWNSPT
Nature of the data set: cis-inhibition of [3H]PGF2α uptake in oocytes at […]. The data set is classed as cell-based. The settings on record: read-out: % inhibition at 10 μM (range over the PGs).

The target of data set [2] is T1, human monocarboxylate transporter 6 (hMCT6). Nature of the data set: cis-inhibition of [3H]PGF2α uptake in oocytes. The data set is classed as cell-based.
The target in data set [3] is T2, murine monocarboxylate transporter 6 (mMct6) (Mus musculus, UniProt G5E8K6).
T2 construct: gene Slc16a5; full-length, untagged, cRNA in Xenopus laevis oocytes
T2 sequence (G5E8K6 1-468): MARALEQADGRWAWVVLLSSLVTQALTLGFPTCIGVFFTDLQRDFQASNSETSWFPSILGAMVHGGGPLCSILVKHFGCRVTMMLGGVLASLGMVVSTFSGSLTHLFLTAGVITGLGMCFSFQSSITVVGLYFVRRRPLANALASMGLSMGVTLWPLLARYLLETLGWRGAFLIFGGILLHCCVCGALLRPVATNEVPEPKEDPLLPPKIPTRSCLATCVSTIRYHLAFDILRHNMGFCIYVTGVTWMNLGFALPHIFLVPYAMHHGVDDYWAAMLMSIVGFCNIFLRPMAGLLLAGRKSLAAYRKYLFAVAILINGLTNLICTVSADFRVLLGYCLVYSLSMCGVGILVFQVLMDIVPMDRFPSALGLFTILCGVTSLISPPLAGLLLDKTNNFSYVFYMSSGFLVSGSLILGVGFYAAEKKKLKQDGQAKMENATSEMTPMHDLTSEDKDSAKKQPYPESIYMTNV
The experiment in a line: cis-inhibition of [3H]PGF2α uptake in oocytes, […] ([…] inhibition). The data set is classed as cell-based.

Data set [4] deals with T2, murine monocarboxylate transporter 6 (mMct6). Described as above. The class given is cell-based. The source holds these as a separate data set.
Substrate in data set [5]: CCCCC[C@H](O)/C=C/[C@@H]1[C@@H](C/C=C\CCCC(=O)O)[C@@H](O)C[C@H]1O
The experiment in a line: cells, lysate or membranes. The class given is cell-based, Homo sapiens. The settings on record: pH 7.4.

Substrate in data set [6]: CCCCC[C@H](O)/C=C/[C@@H]1[C@@H](C/C=C\CCCC(=O)O)[C@@H](O)C[C@H]1O
The experiment in a line: cells, lysate or membranes. The data set is classed as cell-based, Mus musculus. Conditions: pH 7.4.

Regarding `CCCCC[C@H](O)/C=C/[C@H]1C(=O)C[C@H](O)[C@@H]1C/C=C\CCCC(=O)O` [prostaglandin D2], the inhibition at 10 µM in data set [1] was in the range of 51 to 74%.

Turning to `CCCCC[C@H](O)/C=C/[C@H]1[C@H](O)CC(=O)[C@@H]1C/C=C\CCCC(=O)O` [prostaglandin E2], in data set [1], the inhibition at 10 µM was in the range of 51 to 74%.

In the case of `CCCCC[C@H](O)/C=C/[C@@H]1[C@@H](CC(=O)CCCCC(=O)O)[C@@H](O)C[C@H]1O` [6-keto prostaglandin F1α], in data set [1], the inhibition at 10 µM was in the range of 51 to 74%.

Take `CCCN(CCC)S(=O)(=O)c1ccc(C(=O)O)cc1` [probenecid]: in data set [2], the “cis-inhibition of [3H]PGF2α uptake in oocytes” value is “Bumetanide and probenecid also inhibited human MCT6-mediated PGF2α uptake”. The same molecule returned an inhibition at 500 µM in data set [3] of around 94%.

With `CCCCNc1cc(C(=O)O)cc(S(N)(=O)=O)c1Oc1ccccc1` [bumetanide], the “cis-inhibition of [3H]PGF2α uptake in oocytes” value in data set [2] was “Bumetanide and probenecid also inhibited human MCT6-mediated PGF2α uptake”. This molecule also showed an inhibition at 10 µM in data set [4] of around 28%.

B1: human monocarboxylate transporter 6 (hMCT6) (Homo sapiens) (protein)
chain: MPQALERADGSWAWVVLLATMVTQGLTLGFPTCIGIFFTELQWEFQASNSETSWFPSILTAVLHMAGPLCSILVGRFGCRVTVMLGGVLASLGMVASSFSHNLSQLYFTAGFITGLGMCFSFQSSITVLGFYFVRRRVLANALASMGVSLGITLWPLLSRYLLENLGWRGTFLVFGGIFLHCCICGAIIRPVATSVAPETKECPPPPPETPALGCLAACGRTIQRHLAFDILRHNTGYCVYILGVMWSVLGFPLPQVFLVPYAMWHSVDEQQAALLISIIGFSNIFLRPLAGLMAGRPAFASHRKYLFSLALLLNGLTNLVCAASGDFWVLVGYCLAYSVSMSGIGALIFQVLMDIVPMDQFPRALGLFTVLDGLAFLISPPLAGLLLDATNNFSYVFYMSSFFLISAALFMGGSFYALQKKEQGKQAVAADALERDLFLEAKDGPGKQRSPEIMCQSSRQPRPAGVNKHLWGCPASSRTSHEWLLWPKAVLQAKQTALGWNSPT
notes: pGH19-hMCT6 cRNA in Xenopus laevis oocytes
On to B1, for which the Michaelis constant (Km) in data set [5] was found to be 246 µM.

B2: murine monocarboxylate transporter 6 (mMct6) (Mus musculus) (protein)
chain: MARALEQADGRWAWVVLLSSLVTQALTLGFPTCIGVFFTDLQRDFQASNSETSWFPSILGAMVHGGGPLCSILVKHFGCRVTMMLGGVLASLGMVVSTFSGSLTHLFLTAGVITGLGMCFSFQSSITVVGLYFVRRRPLANALASMGLSMGVTLWPLLARYLLETLGWRGAFLIFGGILLHCCVCGALLRPVATNEVPEPKEDPLLPPKIPTRSCLATCVSTIRYHLAFDILRHNMGFCIYVTGVTWMNLGFALPHIFLVPYAMHHGVDDYWAAMLMSIVGFCNIFLRPMAGLLLAGRKSLAAYRKYLFAVAILINGLTNLICTVSADFRVLLGYCLVYSLSMCGVGILVFQVLMDIVPMDRFPSALGLFTILCGVTSLISPPLAGLLLDKTNNFSYVFYMSSGFLVSGSLILGVGFYAAEKKKLKQDGQAKMENATSEMTPMHDLTSEDKDSAKKQPYPESIYMTNV
notes: full-length, untagged, cRNA (NM_001080934.1) in Xenopus laevis oocytes
For the molecule B2, the Km in data set [6] amounted to 40.1 µM.
